Patent US5637619A, “Antitumor 2-aminocarbonyl-1, 2-bis(methylsulfonyl)-1-(substituted)hydrazines” (Yale University, priority 1995, dated 1997)
Several values for one entry are separate records, joined by “and”; a condition that tells them apart may be missing. Equal entries are not always repeated.

Columns and labels:
[1] = system: M5076 reticulum cell sarcoma; assay: M5076 reticulum cell sarcoma, sc implanted; format: in vivo, C57BL/6 mice; conditions: 48 mg/kg/injection, q2d × 5, iv, 100% DMSO
Method: The M5076 reticulum cell sarcoma was passaged biweekly by sc transfer of tumor fragments into C57BL/6 mice, and the M109 lung carcinoma was similarly passaged in BALB/c mice. The LX-1 human lung carcinoma was passaged sc every two to three weeks in BALB/c-background athymic (nu/nu) mice. For use in these systems, compound III was dissolved in: (a) 100% DMSO and administered by iv injection in a fixed volume of 10 microliters; or (b) DMSO diluted with saline to a final concentration of 10% DMSO and administered iv in a volume of 0.01 milliliter/g of body weight. […] Mitomycin C and cyclophosphamide were dissolved and administered in saline. BCNU and MeCCNU were dissolved in ethanol and diluted 1:9 (v/v) with water prior to administration.
Five mice per group were employed in experiments with the B16F10 melanoma, and 8 mice per group with the M5076 sarcoma, the M109 carcinoma and the LX-1 carcinoma. A minimum of two dose levels per compound were included in each evaluation and drug therapy was initiated 24 h after tumor implantation for the M5076 sarcoma and M109 carcinoma. In the LX-1 experiment, tumor bearing mice were selected and sorted into treatment and control groups on day 6 post-tumor implant such that all tumor weights ranged from 50-100 mg and median tumor weights per group were reasonably similar. Therapeutic results are presented in terms of: (a) increases in lifespan reflected by the relative median survival time (MST) of treated versus control groups (i.e., %T/C values), and by long-term survivors, and (b) primary tumor growth inhibition (i.e., T-C values) determined by calculating the relative median times for treated (T) and control untreated (C) mice to grow tumors of a 0.5 g size for the LX-1 carcinoma or a 1 g size for the murine neoplasms. Tumor weights were interchangeable with tumor size on the basis of 1 mm^3 =1 mg. […] The activity criterion for tumor inhibition was a delay in tumor growth consistent with one log10 cell kill (LCK). The absolute T-C value needed to attain this level of efficacy varied from experiment to experiment and depended upon the tumor volume doubling time of the control mice in each study. Treated mice dying prior to day 10 in the ip M109 experiment, or dying before their tumors achieved 0.5 g for the LX-1 carcinoma or 1 g in size for all other sc tumor models, were considered to have died from drug toxicity. Groups of mice with more than one death due to drug toxicity were not used in the evaluation of antitumor efficacy. Statistical evaluations of data were performed using Gehan's generalized Wilcoxan test (Gehan, Biometrika, 1965, 52, 203-233).
Compound III was also evaluated against the M5076 reticulum cell sarcoma implanted sc. When administered iv at a level of 48 mg/kg per injection in 100% DMSO every other day for five days, compound III cured 6 out of 8 mice and consequently, no median time (T-C value) to reach 1 gram size tumors was expressed for this group. Tumor growth in mice receiving only 100% DMSO was indistinguishable from that of untreated control animals. 1-(2-Chloroethyl)-3-(4-methylcyclohexyl)-1-nitrosourea (MeCCNU) and BCNU were included in this experiment for comparison. The former achieved a maximum %T/C of 128 and a delay in tumor growth of 33.5 days at 16 mg/kg per injection administered iv every fourth day for three total injections, while BCNU, administered iv on the same treatment schedule, produced a %T/C in excess of 157, with 2 out of 8 cures, and a T-C of >62 days (data not shown).

[2] = system: several more stringent distal site tumor models; assay: Comparison with clinically active alkylating agents in several distal site tumor models; format: in vivo, mice; conditions: qualitative summary
Method: B16F10 melanoma cells were grown in vitro as monolayers in minimum essential medium with Hank's salts supplemented with 10% fetal bovine serum and 1% 200 mM L-glutamine solution. Solid tumors were produced in C57BL/6 female mice 12- to 14-weeks of age by the intradermal injection in the right flank of each mouse of 0.1 mL of a cell suspension containing 10^6 B16F10 cells/mL from freshly trypsinized cultures. After 10-12 days, animals bearing approximately 100 mm^3 tumors were treated ip with compound III or IV dissolved in 100% DMSO for 6 consecutive days, and tumor volumes were measured on alternate days until reaching 1000 mm^3. […]
Five mice per group were employed in experiments with the B16F10 melanoma, and 8 mice per group with the M5076 sarcoma, the M109 carcinoma and the LX-1 carcinoma. […] Therapeutic results are presented in terms of: (a) increases in lifespan reflected by the relative median survival time (MST) of treated versus control groups (i.e., %T/C values), and by long-term survivors, and (b) primary tumor growth inhibition (i.e., T-C values) determined by calculating the relative median times for treated (T) and control untreated (C) mice to grow tumors of a 0.5 g size for the LX-1 carcinoma or a 1 g size for the murine neoplasms. […]

With `CS(=O)(=O)N(CCCl)N(C(=O)NCCCl)S(C)(=O)=O` [Compound III, 1,2-bis(methylsulfonyl)-1-(2-chloroethyl)-2-(2-chloroethyl)aminocarbonylhydrazine] the “%T/C (median survival time)” value [1] was greater than 157%, the Cures/Total [1] was 6/8 and 6 out of 8 and the “antitumor activity versus clinical alkylating agents (in words)” value [2] was “better than or equal to some of the best clinically active alkylating agents used for comparison”.
